Data: patent US20250163032A1, “NOVEL MOLECULES AS INHIBITORS OF DNA DAMAGE REPAIR PATHWAY” (VRise Therapeutics, Inc., priority 2023, published 2025)

Experiments:
USP1/UAF1 = USP1/UAF1 (Homo sapiens, UniProt O94782); assay: USP1/UAF 1 assay (ubiquitin-rhodamine110 fluorometric deubiquitinase assay); format: biochemical; details: for IC50: 1 nM USP1/UAF1, 150 nM Ub-Rho, read-out: Biochemical assay IC50; for inhibition at 1 µM: read-out: Biochemical assay % inhibition @1 μM
Description: Test-1: USP1/UAF 1 Assay:
Deubiquitinase activity of USP1/UAF1 was monitored in a fluorometric assay using ubiquitin-rhodamine110 as substrate. Briefly, enzymatic reactions were conducted in an assay buffer composed of 50 mM HEPES, pH 7.8, 0.5 mM EDTA, 100 mM NaCl, 1 mM TCEP, 0.1 mg/mL BSA, and 0.01% Tween-20 that contained 1 nM USP1/UAF1. Compounds were tested at desired concentrations. The plates were incubated for 15 min to attain equilibrium, and then the enzymatic reaction was initiated by dispensing 150 nM Ub-Rho solution. Fluorescence measurement was performed in a high throughput CCD imager, where kinetic measurements of rhodamine fluorescence were acquired using a 480 nm excitation/540 nm emission filter set. The change in fluorescence intensity over a 5-minute reaction period (typically associated with less than 10% substrate conversion) was normalized against no-inhibitor and no-enzyme controls and the resulting percent inhibition data were fitted to a sigmoidal dose response using a four-parameter Hill equation. Data was be analysed and percent inhibition and/or IC50 for each test compound is calculated accordingly.

MD-MBA-436 = assay: Cell viability assay (CTG assay); format: cell-based, human; details: 7th day
Description: Test 5: Cell Viability Assay (CTG Assay):
Growth inhibition assays was carried out using […] supplemented media. Cells were seeded at a desired concentration of 1000-6,000 cells/well in a well plate with desired number of wells. Test compounds at a desired concentration range were added after 24 hours. Growth was assessed using the Cell Titer-Glo (CTG, Cell Signaling) for measuring reduction at 7th day after the addition of test compound chemiluminescence values were read by a plate reader. Data was be analysed and percent inhibition and/or IC50 for each test compound is calculated accordingly.

[1] = Metabolic stability, human liver microsomes; format: in vitro ADME; details: pH 7.4, 1 μM test item, 1 mM NADPH, 60 minutes
Description: (§1) Test-8: Metabolic Stability
(§2) Metabolic stability studies were conducted using mouse, rat, and human liver microsomes. The protocol for the studies with mouse and human liver microsomes (Gibco-Thermo) is provided below.
(§3) In brief, 0.25 mg protein was preincubated in phosphate buffer (pH˜7.4) for 5 min at 37° C. and then added with 1 μM test item followed by addition of 1 mM NADPH (cof actor) and incubated further over a period 60 minutes in duplicate. The reaction mixture was terminated with acetonitrile containing an internal standard and centrifuged further to analyse the test item remaining in the supernatant by LC-MS/MS at different intervals. The percent parent compound remaining was calculated in comparison with similar samples terminated at 0 minutes.

[2] = Metabolic stability, mouse liver microsomes; format: in vitro ADME; details: pH 7.4, 1 μM test item, 1 mM NADPH, 60 minutes
Description: as §1, §2, §3

USP1/UAF1, sequence (O94782 whole entry): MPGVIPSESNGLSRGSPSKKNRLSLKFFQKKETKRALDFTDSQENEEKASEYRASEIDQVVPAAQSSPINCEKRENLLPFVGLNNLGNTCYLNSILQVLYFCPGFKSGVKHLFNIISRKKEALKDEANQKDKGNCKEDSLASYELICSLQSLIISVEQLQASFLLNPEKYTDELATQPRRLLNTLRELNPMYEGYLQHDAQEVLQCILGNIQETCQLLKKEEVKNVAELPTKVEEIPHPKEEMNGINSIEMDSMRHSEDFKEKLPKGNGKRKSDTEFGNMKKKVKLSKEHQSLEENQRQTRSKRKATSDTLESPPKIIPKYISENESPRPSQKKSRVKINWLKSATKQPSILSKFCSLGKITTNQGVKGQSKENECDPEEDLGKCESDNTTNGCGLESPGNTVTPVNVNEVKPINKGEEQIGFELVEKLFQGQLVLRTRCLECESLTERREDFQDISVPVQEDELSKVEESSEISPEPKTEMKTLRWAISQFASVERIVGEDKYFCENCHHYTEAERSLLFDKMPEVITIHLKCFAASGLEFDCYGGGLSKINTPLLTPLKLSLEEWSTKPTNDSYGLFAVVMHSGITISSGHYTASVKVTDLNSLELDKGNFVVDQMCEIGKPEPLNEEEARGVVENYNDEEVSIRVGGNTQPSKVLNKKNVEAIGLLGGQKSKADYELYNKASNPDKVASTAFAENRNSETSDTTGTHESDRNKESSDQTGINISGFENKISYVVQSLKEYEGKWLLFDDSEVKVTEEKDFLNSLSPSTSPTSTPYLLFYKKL
USP1/UAF1, sequence (Q8TAF3 whole entry partner): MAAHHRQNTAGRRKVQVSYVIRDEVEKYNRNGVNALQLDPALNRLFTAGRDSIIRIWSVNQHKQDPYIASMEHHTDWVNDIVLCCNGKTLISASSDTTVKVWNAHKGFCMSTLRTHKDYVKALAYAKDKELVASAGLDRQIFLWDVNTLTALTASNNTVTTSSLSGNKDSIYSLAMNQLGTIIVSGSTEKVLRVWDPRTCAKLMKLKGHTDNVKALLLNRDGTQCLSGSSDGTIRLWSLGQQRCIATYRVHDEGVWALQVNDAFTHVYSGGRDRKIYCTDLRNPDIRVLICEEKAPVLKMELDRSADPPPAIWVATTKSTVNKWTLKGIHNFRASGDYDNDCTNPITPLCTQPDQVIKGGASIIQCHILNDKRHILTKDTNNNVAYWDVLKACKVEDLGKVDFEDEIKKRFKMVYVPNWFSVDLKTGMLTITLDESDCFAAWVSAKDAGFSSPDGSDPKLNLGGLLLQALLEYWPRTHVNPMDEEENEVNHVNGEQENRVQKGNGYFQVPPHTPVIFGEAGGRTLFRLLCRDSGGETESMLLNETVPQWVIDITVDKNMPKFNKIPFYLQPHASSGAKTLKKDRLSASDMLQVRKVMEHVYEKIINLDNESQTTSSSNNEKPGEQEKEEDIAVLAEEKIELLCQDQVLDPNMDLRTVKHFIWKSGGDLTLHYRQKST

Row | SMILES | inhibition at 1 µM (USP1/UAF1) | other results
1 | CC(C)c1ccccc1-c1nc(NCc2ccc(-c3nc(C(F)(F)F)cn3C)cc2)c2cccn2n1 [Example 5, 2-(2-isopropylphenyl)-N-(4-(1-methyl-4-(trifluoromethyl)-1H-imidazol-2-yl)benzyl)pyrrolo[2,1-f][1,2,4]triazin-4-amine] |  | IC50 (USP1/UAF1): < 50 nM; IC50 (MD-MBA-436; Homo sapiens): ≥ 1000 nM
2 | CC(C)c1ccccc1-c1nc2c(c(NCc3ccc(-c4nc(C(F)(F)F)cn4C(C)C)cc3)n1)CCC2 [Example 9, N-(4-(1-isopropyl-4-(trifluoromethyl)-1H-imidazol-2-yl)benzyl)-2-(2-isopropylphenyl)-6,7-dihydro-5H-cyclopenta[d]pyrimidin-4-amine] |  | IC50 (USP1/UAF1): < 50 nM; half-life at 1 μM [1]: 10.5 min
3 | CC(C)n1cc(C(F)(F)F)nc1-c1ccc(CNc2nc(-c3c(OC(F)F)ncnc3C3CC3)nc3c2CCC3)cc1 [Example 11, 2-(4-cyclopropyl-6-(difluoromethoxy)pyrimidin-5-yl)-N-(4-(1-isopropyl-4-(trifluoromethyl)-1H-imidazol-2-yl)benzyl)-6,7-dihydro-5H-cyclopenta[d]pyrimidin-4-amine] |  | half-life at 1 μM [2]: 45.5 min; IC50 (USP1/UAF1): < 50 nM; MD-MBA-436 % inhibition@10 μM (MD-MBA-436; @10 μM): A#
4 | CC(C)c1ccccc1-c1nc2c(c(OCc3ccc(-c4nc(C(F)(F)F)cn4C(C)C)cc3)n1)CCC2 [Example 13, 4-((4-(1-isopropyl-4-(trifluoromethyl)-1H-imidazol-2-yl)benzyl)oxy)-2-(2-isopropylphenyl)-6,7-dihydro-5H-cyclopenta[d]pyrimidine] | 25 to 50% | half-life at 1 μM [2]: 9.76 min
5 | COc1ncnc(C2CC2)c1-c1nc(NCc2ccc(-c3nc(C(F)(F)F)cn3C)cc2)c2ncn(C3CCCCO3)c2n1 (stereo not drawn) [Example 19, 2-(4-cyclopropyl-6-methoxypyrimidin-5-yl)-N-(4-(1-methyl-4-(trifluoromethyl)-1H-imidazol-2-yl)benzyl)-9-(tetrahydro-2H-pyran-2-yl)-9H-purin-6-amine] | 50 to 75% | inhibition at 10 µM (MD-MBA-436; Homo sapiens, @10 μM): 75 to 100%
6 | COc1ncnc(C2CC2)c1-c1nc(NCc2ccc(-c3nc(C(F)(F)F)cn3C(C)C)cc2)c2cccn2n1 [Example 22, 2-(4-cyclopropyl-6-methoxypyrimidin-5-yl)-N-(4-(1-isopropyl-4-(trifluoromethyl)-1H-imidazol-2-yl)benzyl)pyrrolo[2,1-f][1,2,4]triazin-4-amine] |  | IC50 (USP1/UAF1): < 50 nM; IC50 (MD-MBA-436; Homo sapiens): 50 to 100 nM
7 | COc1cccc(F)c1-c1nc(OCc2ccc(-c3nc(C(F)(F)F)cn3C)cc2)c2ncn(C3CCCCO3)c2n1 (stereo not drawn) [Example 27, 2-(2-fluoro-6-methoxyphenyl)-6-((4-(1-methyl-4-(trifluoromethyl)-1H-imidazol-2-yl)benzyl)oxy)-9-(tetrahydro-2H-pyran-2-yl)-9H-purine] |  | half-life at 1 μM [2]: 122 min
8 | CC(=O)Nc1cccc(-c2nc3c(c(NCc4ccc(-c5nc(C(F)(F)F)cn5C)cc4)n2)CCC3)c1 [Example 59, N-(3-(4-((4-(1-methyl-4-(trifluoromethyl)-1H-imidazol-2-yl)benzyl)amino)-6,7-dihydro-5H-cyclopenta[d]pyrimidin-2-yl)phenyl)acetamide] | 50 to 75% | 
9 | Cn1cc(C(F)(F)F)nc1-c1ccc(CNc2nc(-c3ccc(F)c(C#N)c3)nc3c2CCC3)cc1 [Example 60, 2-fluoro-5-(4-((4-(1-methyl-4-(trifluoromethyl)-1H-imidazol-2-yl)benzyl)amino)-6,7-dihydro-5H-cyclopenta[d]pyrimidin-2-yl)benzonitrile] | 50 to 75% | 
10 | Cn1cc(C(F)(F)F)nc1-c1ccc(CNc2nc(-c3cc(Cl)ccc3F)nc3c2CCC3)cc1 [Example 61, 2-(5-chloro-2-fluorophenyl)-N-(4-(1-methyl-4-(trifluoromethyl)-1H-imidazol-2-yl)benzyl)-6,7-dihydro-5H-cyclopenta[d]pyrimidin-4-amine] | 50 to 75% | 
11 | CCOc1ccc(-c2nc3c(c(NCc4ccc(-c5nc(C(F)(F)F)cn5C)cc4)n2)CCC3)cn1 [Example 62, 2-(6-ethoxypyridin-3-yl)-N-(4-(1-methyl-4-(trifluoromethyl)-1H-imidazol-2-yl)benzyl)-6,7-dihydro-5H-cyclopenta[d]pyrimidin-4-amine] | 50 to 75% | 

Second part, led by results:

Row | inhibition at 1 µM (USP1/UAF1) | SMILES | other results
12 | 50 to 75% | Cn1cc(C(F)(F)F)nc1-c1ccc(CNc2nc(-c3ccc(C#N)cc3)nc3c2CCC3)cc1 [Example 63, 4-(4-((4-(1-methyl-4-(trifluoromethyl)-1H-imidazol-2-yl)benzyl)amino)-6,7-dihydro-5H-cyclopenta[d]pyrimidin-2-yl)benzonitrile] | 
13 | 25 to 50% | Cn1cc(C(F)(F)F)nc1-c1ccc(CNc2nc(-c3ccc(-c4ccccc4)cc3)nc3c2CCC3)cc1 [Example 64, 2-([1,1′-biphenyl]-4-yl)-N-(4-(1-methyl-4-(trifluoromethyl)-1H-imidazol-2-yl)benzyl)-6,7-dihydro-5H-cyclopenta[d]pyrimidin-4-amine] | 
14 | 50 to 75% | COc1ccc(-c2nc3c(c(NCc4ccc(-c5nc(C(F)(F)F)cn5C)cc4)n2)CCC3)c(OC)n1 [Example 65, 2-(2,6-dimethoxypyridin-3-yl)-N-(4-(1-methyl-4-(trifluoromethyl)-1H-imidazol-2-yl)benzyl)-6,7-dihydro-5H-cyclopenta[d]pyrimidin-4-amine] | 
15 | 50 to 75% | COc1ccc(OC)c(-c2nc3c(c(NCc4ccc(-c5nc(C(F)(F)F)cn5C)cc4)n2)CCC3)c1 [Example 66, 2-(2,5-dimethoxyphenyl)-N-(4-(1-methyl-4-(trifluoromethyl)-1H-imidazol-2-yl)benzyl)-6,7-dihydro-5H-cyclopenta[d]pyrimidin-4-amine] | 
16 | 50 to 75% | Cn1cc(C(F)(F)F)nc1-c1ccc(CNc2nc(-c3cccc(Cl)c3F)nc3c2CCC3)cc1 [Example 67, 2-(3-chloro-2-fluorophenyl)-N-(4-(1-methyl-4-(trifluoromethyl)-1H-imidazol-2-yl)benzyl)-6,7-dihydro-5H-cyclopenta[d]pyrimidin-4-amine] | 
17 | 50 to 75% | COc1ccc(-c2nc3c(c(NCc4ccc(-c5nc(C(F)(F)F)cn5C)cc4)n2)CCC3)c(OC)c1 [Example 68, 2-(2,4-dimethoxyphenyl)-N-(4-(1-methyl-4-(trifluoromethyl)-1H-imidazol-2-yl)benzyl)-6,7-dihydro-5H-cyclopenta[d]pyrimidin-4-amine] | 
18 | 50 to 75% | COc1ccc(-c2nc3c(c(NCc4ccc(-c5nc(C(F)(F)F)cn5C)cc4)n2)CCC3)cc1OC [Example 69, 2-(3,4-dimethoxyphenyl)-N-(4-(1-methyl-4-(trifluoromethyl)-1H-imidazol-2-yl)benzyl)-6,7-dihydro-5H-cyclopenta[d]pyrimidin-4-amine] | 
19 | > 75% | Cn1cc(C(F)(F)F)nc1-c1ccc(CNc2nc(-c3ccccc3C(F)(F)F)nc3c2CCC3)cc1 [Example 70, N-(4-(1-methyl-4-(trifluoromethyl)-1H-imidazol-2-yl)benzyl)-2-(2-(trifluoromethyl)phenyl)-6,7-dihydro-5H-cyclopenta[d]pyrimidin-4-amine] | 
20 | 50 to 75% | Cn1cc(C(F)(F)F)nc1-c1ccc(CNc2nc(-c3ccc(C(F)(F)F)cc3)nc3c2CCC3)cc1 [Example 71, N-(4-(1-methyl-4-(trifluoromethyl)-1H-imidazol-2-yl)benzyl)-2-(4-(trifluoromethyl)phenyl)-6,7-dihydro-5H-cyclopenta[d]pyrimidin-4-amine] | 
21 | 50 to 75% | Cn1cc(C(F)(F)F)nc1-c1ccc(CNc2nc(-c3cccc(C(N)=O)c3)nc3c2CCC3)cc1 [Example 72, 3-(4-((4-(1-methyl-4-(trifluoromethyl)-1H-imidazol-2-yl)benzyl)amino)-6,7-dihydro-5H-cyclopenta[d]pyrimidin-2-yl)benzamide] | 
22 | 50 to 75% | Cn1cc(C(F)(F)F)nc1-c1ccc(CNc2nc(-c3cc(Cl)cc(Cl)c3)nc3c2CCC3)cc1 [Example 73, 2-(3,5-dichlorophenyl)-N-(4-(1-methyl-4-(trifluoromethyl)-1H-imidazol-2-yl)benzyl)-6,7-dihydro-5H-cyclopenta[d]pyrimidin-4-amine] | 
23 | 50 to 75% | Cn1cc(C(F)(F)F)nc1-c1ccc(CNc2nc(-c3cc(F)cc(F)c3F)nc3c2CCC3)cc1 [Example 74, N-(4-(1-methyl-4-(trifluoromethyl)-1H-imidazol-2-yl)benzyl)-2-(2,3,5-trifluorophenyl)-6,7-dihydro-5H-cyclopenta[d]pyrimidin-4-amine] | 
